One assay concerns the target T1, EGFR (ErbB1) (Homo sapiens, UniProt P00533).
T1 construct: purchased Invitrogen
As to the kind of experiment: Z'-LYTE kinase inhibition assay (Invitrogen), EGFR. It counts as biochemical. The following applies: for inhibition at 0.1 µM: compound at 100 nM, [ATP] = Km; for inhibition at 0.041 µM: compound at 41 nM, 10 μM of ATP. The procedure: (§1) Inhibitory activities of compounds against BTK, EGFR and EGFR mutants (EGFR L858R/T790M) were measured by Invitrogen using Z′-LYTE® Method as briefly described in the following.
(§2) Test Compounds are screened in 1% DMSO (final) in the well. For 10 point titrations, 3-fold serial dilutions are conducted from the starting concentration. All ATP Solutions are diluted to a 4× working concentration in Kinase Buffer (50 mM HEPES pH 7.5, 0.01% BRIJ-35, 10 mM MgCl2, 1 mM EGTA). Peptide/Kinase Mixtures are diluted to a 2× working concentration in the appropriate Kinase Buffers as described below.
(i) Peptide/Kinase Mixtures for measurement of EGFR (ErbB1):
The 2×EGFR (ErbB1)/Tyr 04 mixture is prepared in 50 mM HEPES pH 7.5, 0.01% BRIJ-35, 10 mM MgCl2, 4 mM MnCl2, 1 mM EGTA, 2 mMDTT. The final 10 μL Kinase Reaction consists of 1.1-5.25 ng EGFR (ErbB1) and 2 μM Tyr 04 in 50 mM HEPES pH 7.5, 0.01% BRIJ-35, 10 mM MgCl2, 2 mM MnCl2, 1 mM EGTA, 1 mM DTT. After the 1 hour Kinase Reaction incubation, 5 μL of a 1:64 dilution of DevelopmentReagent B is added.
(§3) Reaction starts by 30-second shaking of mixture consisting of 2.5 μL 4× test compound, 5 μL 2× kinase reaction mixture and 2.5 μL 4×ATP Solution on Bar-coded Corning, low volume NBS, black 384-well plate (Corning Cat. #3676). Then the mixture is incubated for 60-minute at room temperature for the kinase reaction, followed by addition of 5 μL of a 1:1024 dilution of development reagent A and 30-second plate shake. The mixture is then incubated for another 60-minute at room temperature for development reaction. Finally fluorescence is read by plate reader. […] The scale utilized in Tables 2 and 3 is as follows: ++ more than 50% inhibition and + less than 50% inhibition.
(§4) To determine IC50 of a compound against EGFR or EGFR mutants, a series of concentrations of the compound were tested for the inhibition. IC50 was calculated by plotting the concentration of compound vs the percentage of inhibition in treated wells using GraphPad Prism 5. […] The scale utilized in Table 4 is as follows: ++ less than 100 nM and + greater than 100 nM.

For a further assay, the target named is T2, EGFR (ErbB1) T790M L858R (Homo sapiens, UniProt P00533, L858R/T790M).
T2 construct: purchased Invitrogen
As to the kind of experiment: Z'-LYTE kinase inhibition assay (Invitrogen), EGFR L858R/T790M. In kind it is biochemical. The following applies: for inhibition at 0.1 µM: compound at 100 nM, [ATP] = Km; for inhibition at 0.0137 µM: compound at 13.7 nM, 10 μM of ATP. How it is done: as §1, §2
(iv) Peptide/Kinase Mixtures for measurement of EGFR (ErbB1) T790M L858R:
The 2×EGFR (ErbB1) T790M L858R/Tyr 04 mixture is prepared in 50 mM HEPES pH 6.5, 0.01% BRIJ-35, 10 mM MgCl2, 1 mM EGTA, 0.02% NaN3. The final 10 μL Kinase Reaction consists of 0.38-4.22 ng EGFR (ErbB1) T790M L858R and 2 μM Tyr 04 in 50 mM HEPES pH 7.0, 0.01% BRIJ-35, 10 mM MgCl2, 1 mM EGTA, 0.01% NaN3. After the 1 hour Kinase Reaction incubation, 5 μL of a 1:64 dilution of Development Reagent B is added.
as §3, §4

The next assay deals with T3, BTK (Homo sapiens, UniProt Q06187).
T3 construct: purchased Invitrogen
As to the kind of experiment: Z'-LYTE kinase inhibition assay (Invitrogen), BTK. The following applies: for inhibition at 0.1 µM: compound at 100 nM, [ATP] = Km; for inhibition at 0.041 µM: compound at 41 nM, 10 μM of ATP. It counts as biochemical. How it is done: as §1, §2
(v) Peptide/Kinase Mixtures for measurement of BTK:
The 2×BTK/Tyr 01 mixture is prepared in 50 mM HEPES pH 7.5, 0.01% BRIJ-35, 10 mM MgCl2, 1 mM EGTA. The final 10 μL Kinase Reaction consists of 1.04-10.4 ng BTK and 2 μM Tyr 01 in 50 mM HEPES pH 7.5, 0.01% BRIJ-35, 10 mM MgCl2, 1 mM EGTA. After the 1 hour Kinase Reaction incubation, 5 μL of a 1:256 dilution of Development Reagent B is added.
as §3, §4

A further assay relates to H1975 cells. The assay can be described thus: MTT cell growth inhibition assay, H1975. In kind it is cell-based. Particulars: Homo sapiens, NCI-H1975, H1975 cells (EGFR L858R/T790M), 72 h. How it is done:
Inhibition of cell growth by compounds was measured using MTT assay (Mosmann, T., Journal of Immunological Methods, 1983, 65, 55-63). Tumor cell lines were purchased from ATCC (American Type Culture Collection, Manassas, Va.). All cell lines were maintained in RPMI 1640 (Hyclone) supplemented with 10% fetal bovine serum (FBS, Hyclone), glutamine (2 mM, Hyclone), and antibiotics (penicillin 100 U/mL and streptomycin 50 μg/mL) at 37° C. in a humidified atmosphere of 5% CO2 in air. Taxol (as a positive control, Sigma) and compounds were dissolved in DMSO (Sigma), and the final concentration of DMSO in the medium was 1%. Tumor cells were plated in 96-well plates at densities of about 4000 cells/well of a 96-well plate and allowed to adhere/grow for 24 h. They were then treated with various concentrations of drug for 72 h. 3-(4,5-Dimethylthiazol-2-yl)-2,5-diphenyltetrazolium bromide (MTT, Sigma) was used to determine the number of viable cells at the time of compound addition and the number of cells remaining after 72 h compound exposure. The number of cells remaining after 72 h was compared to the number of viable cells at the time of compound addition by measuring the absorbance at 570 nm, allowing for the calculation of growth inhibition.
All concentrations of compounds were tested in triplicate and controls were averaged over 4 wells. IC50 was calculated by plotting the concentration of compound vs the percentage of inhibition in treated wells using GraphPad Prism 5.
Tables 5 show IC50 values of several compounds of the invention in A549, A431, H1299, and H1975 human cancer cells. A549 cells have a mutation on KRAS, H3255 cells have L858R mutation, and H1975 cells have double EGFR mutations (L858R/T790M). The scale utilized in Table 5 is as follows: +++ less than 100 nM; ++ between 100 nM and 500 nM; and + greater than 500 nM.

pIC50: −log10 of the molar value.

T3 sequence (Q06187 whole entry): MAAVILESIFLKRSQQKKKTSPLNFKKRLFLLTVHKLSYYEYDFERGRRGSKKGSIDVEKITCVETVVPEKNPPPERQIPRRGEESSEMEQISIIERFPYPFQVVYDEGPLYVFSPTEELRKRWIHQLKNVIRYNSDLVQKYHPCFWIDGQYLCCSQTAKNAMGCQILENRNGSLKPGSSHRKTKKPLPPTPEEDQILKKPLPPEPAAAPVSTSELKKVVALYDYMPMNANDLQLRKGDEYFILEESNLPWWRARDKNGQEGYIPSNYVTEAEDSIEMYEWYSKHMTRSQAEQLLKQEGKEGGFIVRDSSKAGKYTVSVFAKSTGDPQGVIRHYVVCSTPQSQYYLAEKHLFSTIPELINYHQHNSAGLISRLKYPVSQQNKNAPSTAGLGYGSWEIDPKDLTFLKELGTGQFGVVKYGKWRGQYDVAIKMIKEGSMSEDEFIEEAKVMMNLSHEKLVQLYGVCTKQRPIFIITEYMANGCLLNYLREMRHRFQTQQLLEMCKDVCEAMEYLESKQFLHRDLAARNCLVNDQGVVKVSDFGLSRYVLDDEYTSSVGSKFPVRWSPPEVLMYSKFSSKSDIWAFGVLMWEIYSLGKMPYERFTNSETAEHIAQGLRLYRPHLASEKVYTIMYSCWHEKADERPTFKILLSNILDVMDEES
T1 sequence (P00533 25-1210): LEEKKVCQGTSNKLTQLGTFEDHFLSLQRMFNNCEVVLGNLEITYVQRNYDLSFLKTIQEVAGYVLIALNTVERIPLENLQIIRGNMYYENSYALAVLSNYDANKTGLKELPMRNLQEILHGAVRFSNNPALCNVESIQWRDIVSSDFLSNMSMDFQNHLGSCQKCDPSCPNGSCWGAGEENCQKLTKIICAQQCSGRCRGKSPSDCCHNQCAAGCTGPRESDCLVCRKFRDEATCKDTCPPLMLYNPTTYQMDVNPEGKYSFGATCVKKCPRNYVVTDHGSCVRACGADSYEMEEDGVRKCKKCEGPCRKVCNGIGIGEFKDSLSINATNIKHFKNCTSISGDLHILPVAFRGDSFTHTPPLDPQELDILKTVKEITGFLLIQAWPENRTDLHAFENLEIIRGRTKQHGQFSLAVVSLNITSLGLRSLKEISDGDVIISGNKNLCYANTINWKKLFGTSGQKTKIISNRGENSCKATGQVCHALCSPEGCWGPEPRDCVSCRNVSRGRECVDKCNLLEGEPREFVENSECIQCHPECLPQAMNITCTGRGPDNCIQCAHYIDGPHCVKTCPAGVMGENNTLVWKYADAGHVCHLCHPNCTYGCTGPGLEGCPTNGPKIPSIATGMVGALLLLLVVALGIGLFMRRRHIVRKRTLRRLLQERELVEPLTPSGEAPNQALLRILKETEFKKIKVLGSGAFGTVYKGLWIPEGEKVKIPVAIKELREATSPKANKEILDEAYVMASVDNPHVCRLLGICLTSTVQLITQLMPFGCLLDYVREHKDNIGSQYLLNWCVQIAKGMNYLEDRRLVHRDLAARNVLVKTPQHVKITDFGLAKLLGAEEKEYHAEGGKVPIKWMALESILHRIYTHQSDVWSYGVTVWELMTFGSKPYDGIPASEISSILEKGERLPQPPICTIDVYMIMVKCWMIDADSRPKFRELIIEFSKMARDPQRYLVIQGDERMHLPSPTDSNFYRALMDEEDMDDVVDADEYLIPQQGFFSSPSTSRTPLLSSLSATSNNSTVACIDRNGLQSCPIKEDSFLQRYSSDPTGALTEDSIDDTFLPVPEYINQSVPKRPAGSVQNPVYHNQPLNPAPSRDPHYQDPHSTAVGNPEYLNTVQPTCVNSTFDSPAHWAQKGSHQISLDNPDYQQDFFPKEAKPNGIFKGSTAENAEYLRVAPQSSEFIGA
T2 sequence (P00533 25-1210 T790M/L858R): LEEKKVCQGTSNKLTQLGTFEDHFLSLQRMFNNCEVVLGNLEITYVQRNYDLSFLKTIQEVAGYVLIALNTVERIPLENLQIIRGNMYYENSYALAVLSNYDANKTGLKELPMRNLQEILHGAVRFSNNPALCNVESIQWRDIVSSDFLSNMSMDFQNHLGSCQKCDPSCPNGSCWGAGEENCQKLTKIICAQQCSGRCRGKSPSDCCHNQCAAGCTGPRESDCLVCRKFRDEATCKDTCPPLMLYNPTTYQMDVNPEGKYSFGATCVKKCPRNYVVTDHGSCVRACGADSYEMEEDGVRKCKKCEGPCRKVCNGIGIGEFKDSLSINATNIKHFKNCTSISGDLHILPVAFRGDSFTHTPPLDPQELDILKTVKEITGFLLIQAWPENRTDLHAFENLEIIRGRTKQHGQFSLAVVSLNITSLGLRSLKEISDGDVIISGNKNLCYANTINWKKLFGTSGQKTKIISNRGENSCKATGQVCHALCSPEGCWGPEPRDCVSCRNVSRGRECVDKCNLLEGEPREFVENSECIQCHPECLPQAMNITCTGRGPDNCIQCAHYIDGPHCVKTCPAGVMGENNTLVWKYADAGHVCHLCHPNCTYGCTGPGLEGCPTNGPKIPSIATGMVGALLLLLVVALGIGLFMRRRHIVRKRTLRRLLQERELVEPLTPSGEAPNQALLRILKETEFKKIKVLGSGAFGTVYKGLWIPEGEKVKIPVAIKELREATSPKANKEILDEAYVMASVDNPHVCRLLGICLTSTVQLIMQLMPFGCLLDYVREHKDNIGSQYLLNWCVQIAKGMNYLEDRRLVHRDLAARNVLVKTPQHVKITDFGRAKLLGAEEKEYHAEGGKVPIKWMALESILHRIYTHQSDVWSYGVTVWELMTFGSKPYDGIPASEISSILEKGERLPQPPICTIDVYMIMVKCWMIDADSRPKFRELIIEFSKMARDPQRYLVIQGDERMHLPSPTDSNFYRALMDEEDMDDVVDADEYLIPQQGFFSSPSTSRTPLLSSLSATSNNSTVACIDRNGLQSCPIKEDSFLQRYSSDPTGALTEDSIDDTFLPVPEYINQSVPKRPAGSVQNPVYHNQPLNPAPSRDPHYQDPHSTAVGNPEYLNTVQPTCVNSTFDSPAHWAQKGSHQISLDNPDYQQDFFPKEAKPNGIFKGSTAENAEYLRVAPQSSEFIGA

One may read the inhibition as how much of the control response was suppressed. A high value points to strong suppression. In general, pIC50 refers to −log10 of the IC50, conventionally taken in molar units. A high value points to a small IC50. `C=CC(=O)Nc1cc(Nc2ncc3cccc(-c4cncc(Cl)c4)c3n2)ccc1N(C)CCN(C)C` [Example C021]: the inhibition at 0.1 µM on EGFR (ErbB1) is under 50%; on EGFR (ErbB1) T790M L858R it was over 50%; on BTK, over 50%. In the assay on H1975 cells, this molecule had a negative logarithm of the IC50 (pIC50) of over 7.00.

On EGFR (ErbB1), `C=CC(=O)Nc1cc(Nc2ncc3cccc(-c4cccc(Cl)c4)c3n2)ccc1N1CCN(C)CC1` [Example C011, N-(5-((8-(3-chlorophenyl)quinazolin-2-yl)amino)-2-(4-methylpiperazin-1-yl)phenyl)acrylamide] gave an inhibition at 0.041 µM of under 50% and an inhibition at 0.1 µM of under 50%. For the same molecule, on EGFR (ErbB1) T790M L858R, the inhibition at 0.0137 µM was under 50% and the inhibition at 0.1 µM is under 50%. Moreover, the inhibition at 0.1 µM at BTK was over 50%. In the assay on H1975 cells, this molecule had a negative-log IC50 (pIC50) of over 7.00.

As to `C=CC(=O)Nc1cc(Nc2ncc3cccc(-c4ccccc4Cl)c3n2)ccc1OCCN(C)C` [Example C014, N-(5-((8-(2-chlorophenyl)quinazolin-2-yl)amino)-2-(2-(dimethylamino)ethoxy)phenyl)acrylamide], at EGFR (ErbB1), the inhibition at 0.041 µM was under 50% and the inhibition at 0.1 µM was under 50%. On EGFR (ErbB1) T790M L858R, the inhibition at 0.0137 µM was under 50% and the inhibition at 0.1 µM was under 50%. Besides, the inhibition at 0.1 µM on BTK was over 50%. In the assay with H1975 cells, this molecule gave a pIC50 of over 7.00.

For `C=CC(=O)Nc1cc(Nc2ncc3cccc(-c4cccnc4)c3n2)ccc1N(C)CCN(C)C` [Example C010, N-(2-((2-(dimethylamino)ethyl)(methyl)amino)-5-((8-(pyridin-3-yl)quinazolin-2-yl)amino)phenyl)acrylamide], the inhibition at 0.041 µM is under 50% against EGFR (ErbB1) and over 50% at BTK. Moreover, the inhibition at 0.1 µM against EGFR (ErbB1) is under 50%; against EGFR (ErbB1) T790M L858R, under 50%; against BTK, over 50%. On EGFR (ErbB1) T790M L858R, this molecule came in with an inhibition at 0.0137 µM of under 50%. Besides, in the assay with H1975 cells, the pIC50 is 6.30 to 7.00.

Consider `C=CC(=O)Nc1cc(Nc2ncc3cccc(-c4cccc(Cl)c4)c3n2)ccc1OCCN(C)C` [Example C012, N-(5-((8-(3-chlorophenyl)quinazolin-2-yl)amino)-2-(2-(dimethylamino)ethoxy)phenyl)acrylamide], for which, on EGFR (ErbB1), the inhibition at 0.041 µM was under 50%. For the same molecule, the inhibition at 0.1 µM against EGFR (ErbB1) is under 50%; at EGFR (ErbB1) T790M L858R, under 50%; against BTK it was over 50%. Further, the inhibition at 0.0137 µM on EGFR (ErbB1) T790M L858R is over 50%. For the same molecule, the pIC50 with H1975 cells was over 7.00.

`C=CC(=O)Nc1cc(Nc2ncc3cccc(Br)c3n2)ccc1N(C)CCN(C)C` [Example C001, N-(5-((8-bromoquinazolin-2-yl)amino)-2-((2-(dimethylamino)ethyl)(methyl)amino)phenyl) acrylamide] displayed an inhibition at 0.0137 µM against EGFR (ErbB1) T790M L858R of under 50%. The pIC50 in the assay on H1975 cells is over 7.00.

As for `C=CC(=O)Nc1cc(Nc2ncc3cccc(-c4ccccc4F)c3n2)ccc1N(C)CCN(C)C` [Example C009, N-(2-((2-(dimethylamino)ethyl)(methyl)amino)-5-((8-(2-fluorophenyl)quinazolin-2-yl)amino)phenyl)acrylamide], on EGFR (ErbB1), the inhibition at 0.041 µM is under 50% and the inhibition at 0.1 µM was under 50%. At EGFR (ErbB1) T790M L858R, the inhibition at 0.0137 µM was over 50% and the inhibition at 0.1 µM was under 50%. At BTK, the inhibition at 0.041 µM is over 50% and the inhibition at 0.1 µM is over 50%. This molecule gave a negative logarithm of the IC50 (pIC50) with H1975 cells of over 7.00.

With `C=CC(=O)Nc1cc(Nc2ncc3cccc(-c4cccc(Cl)c4)c3n2)ccc1OC1CCN(C)CC1` [Example C013, N-(5-((8-(3-chlorophenyl)quinazolin-2-yl)amino)-2-((1-methylpiperidin-4-yl)oxy)phenyl)acrylamide], the inhibition at 0.041 µM at EGFR (ErbB1) was under 50%. Further, the results for the inhibition at 0.1 µM on EGFR (ErbB1), against EGFR (ErbB1) T790M L858R and on BTK were under 50%, under 50% and over 50%, respectively. The inhibition at 0.0137 µM against EGFR (ErbB1) T790M L858R was over 50%. The same molecule showed a pIC50 with H1975 cells of 6.30 to 7.00.

As to `C=CC(=O)Nc1cc(Nc2ncc3cccc(-c4ccncc4)c3n2)ccc1N(C)CCN(C)C` [Example C007, N-(2-((2-(dimethylamino)ethyl)(methyl)amino)-5-((8-(pyridin-4-yl)quinazolin-2-yl)amino)phenyl)acrylamide], on EGFR (ErbB1), the inhibition at 0.041 µM is under 50% and the inhibition at 0.1 µM was under 50%. At EGFR (ErbB1) T790M L858R, this molecule came in with an inhibition at 0.0137 µM of under 50% and an inhibition at 0.1 µM of under 50%. For the same molecule, on BTK, the inhibition at 0.041 µM is over 50% and the inhibition at 0.1 µM is over 50%. The molecule also had a pIC50 with H1975 cells of over 7.00.

With `C=CC(=O)Nc1cccc(-n2cnc3cnc(Nc4ccc(N5CCN(CCO)CC5)c(F)c4)nc32)c1` [Example A020], the inhibition at 0.1 µM on EGFR (ErbB1) was under 50%; at EGFR (ErbB1) T790M L858R it was over 50%; against BTK, over 50%.

`C=CC(=O)Nc1cccc(-n2cnc3cnc(Nc4ccc(N5CCN(C)CC5)c(F)c4)nc32)c1` [Example A010, N-(3-(2-((3-fluoro-4-(4-methylpiperazin-1-yl)phenyl)amino)-9H-purin-9-yl)phenyl)acrylamide]: the negative-log IC50 (pIC50) against EGFR (ErbB1) is under 7.00; against EGFR (ErbB1) T790M L858R, under 7.00; against BTK, over 7.00. For the same molecule, the inhibition at 0.1 µM against BTK is over 50%.

On to `C=CC(=O)Nc1cccc(-n2cnc3cnc(Nc4ccc(N5CCN(C)CC5)cc4)nc32)c1` [Example A002, N-(3-(2-((4-(4-methylpiperazin-1-yl)phenyl)amino)-9H-purin-9-yl)phenyl)acrylamide], for which the negative logarithm of the IC50 (pIC50) was under 7.00 against EGFR (ErbB1), under 7.00 against EGFR (ErbB1) T790M L858R and over 7.00 at BTK. On BTK, this molecule showed an inhibition at 0.1 µM of over 50%.

The values are drawn from patent publication US10947201B2, “Certain chemical entities, compositions, and methods” (NEUPHARMA, INC., priority 2015, dated 2021).
